Consider 49 compounds from patent publication US9743665B2, “Fungicidal 3-{phenyl[heterocyclylmethoxy)imino]methyl}-oxadiazolone derivatives” (BAYER CROPSCIENCE AKTIENGESELLSCHAFT, priority 2013, dated 2017).

Where two headings read alike, the source gives them in different places. Marks after values point to notes of the source that are not given here.

The conditions of data set [1]: pH 2.7.
Description: (§1) Measurement of IogP values was performed according EEC directive 79/831 Annex V.A8 by HPLC (High Performance Liquid Chromatography) on reversed phase columns with the following methods:
(§2) Measurement of LC-MS was done at pH 2.7 with 0.1% formic acid in water and with acetonitrile (contains 0.1% formic acid) as eluent with a linear gradient from 10% acetonitrile to 95% acetonitrile.
(§3) Calibration was done with not branched alkan2-ones (with 3 to 16 carbon atoms) with known logP-values (measurement of logP values using retention times with linear interpolation between successive alkanones). lambda-maX-values were determined using UV-spectra from 200 nm to 400 nm and the peak values of the chromatographic signals.
The conditions of data set [2]: for chromatographic logP: pH 2.7; for LogP: Table 1, formula (I), method [a]: HPLC/LC-MS at pH 2.7, 0.1% formic acid in water / acetonitrile gradient.
Description: as §1, §2, §3
Data set [3] relates to Phytophthora infestans. It is filed as in vivo. The following applies: tomato plants, preventive spray, 500 ppm of active ingredient, evaluated 5 days after inoculation.
Data set [4] concerns Plasmopara viticola. The data set can be described thus: Example J: Plasmopara test (grapevines)/preventive. It counts as in vivo. As to conditions: grapevine plants, preventive spray, 10 ppm of active ingredient, evaluated 6 days after inoculation. The protocol: Example J: Plasmopara Test (Grapevines)/Preventive
To produce a suitable preparation of active compound, 1 part by weight of active compound is mixed with the stated amounts of solvent and emulsifier, and the concentrate is diluted with water to the desired concentration.
To test for preventive activity, young plants are sprayed with the preparation of active compound at the stated rate of application. After the spray coating has dried on, the plants are inoculated with an aqueous spore suspension of Plasmopara viticola and then remain for 1 day in an incubation cabinet at approximately 20° C. and a relative atmospheric humidity of 100%. The plant is subsequently placed for 4 days in a greenhouse at approximately 21° C. and a relative atmospheric humidity of approximately 90%. The plants are then misted and placed for 1 day in an incubation cabinet.
The test is evaluated 6 days after the inoculation. 0% means an efficacy which corresponds to that of the untreated control, while an efficacy of 100% means that no disease is observed.

As for `CCCCCC#Cc1csc(CON=C(C(N)=NO)c2ccccc2)n1` [Example V-6], in data set [1], the LogP is 3.37^[a].
The term chromatographic logP denotes a lipophilicity value derived from retention on a column. In data set [2], `Cn1oc(=O)nc1/C(=N\OCn1ccc([N+](=O)[O-])n1)c1ccccc1` [Example 2, 2-methyl-3-[(Z)-{[(3-nitro-1H-pyrazol-1-yl)methoxy]imino}(phenyl)methyl]-1,2,4-oxadiazol-5(2H)-one] came in with a chromatographic logP of 2.1.
Turning to `Cn1oc(=O)nc1/C(=N\OCc1nc(C(=O)NC(C)(C)C)cs1)c1ccccc1` [Example 43], the LogP in data set [1] was 2.61^[a].
In data set [2], `N#CC(=NOCc1nc(Br)cs1)c1ccccc1` [Example IV-3, {[(4-bromo-1,3-thiazol-2-yl)methoxy]imino}(phenyl)acetonitrile] gave a chromatographic logP of 3.61.
As for `N#CC(=NOCc1nc(C#CC2CCCCC2)cs1)c1ccccc1` [Example IV-9], the LogP in data set [1] is 5.42^[a].
Same read-out and setting: for `N#CC(=NOCc1nc(C#CCCCc2ccccc2)cs1)c1ccccc1` [Example IV-5] the value was 5.19^[a]; for `CCCCC#Cc1csc(CON=C(C#N)c2ccccc2)n1` [Example IV-7], 4.83^[a].
In data set [2], `CN(O)C(=N)/C(=N\OCc1nc(Br)cs1)c1ccccc1` [Example VI-2, (2Z)-2-{[(4-bromo-1,3-thiazol-2yl)methoxy]imino}-N-hydroxy-N-methyl-2-phenylethanimidamide] registered a chromatographic logP of 1.49.
In the case of `O=c1[nH]c(/C(=N\OCc2nc(C#CC3CCCCC3)cs2)c2ccccc2)no1` [Example 32], the LogP in data set [1] is 4.33^[a].
Same read-out and setting: next, `Cn1c(/C(=N\OCc2nc(/C=C/Cc3ccccc3)cs2)c2ccccc2)noc1=O` [Example 41]: 4.39^[a].
In data set [2], `Cn1oc(=O)nc1/C(=N\OCc1nc(C#CC2CC2)cs1)c1ccccc1` [Example 4, 3-[(Z)-({[4-(cyclopropylethynyl)-1,3-thiazol-2-yl]methoxy}imino)(phenyl)methyl]-2-methyl-1,2,4-oxadiazol-5(2H)-one] showed a chromatographic logP of 3.04. For the same compound, in data set [3], the “% efficacy” value was found to be 100%.
For `CCCC/C=C/c1csc(CO/N=C(/c2ccccc2)c2noc(=O)n2C)n1` [Example 24], the “% efficacy” value in data set [3] came to 98%. In data set [1], the LogP is 4.77^[a].
The matching figures for `CCCCC#Cc1csc(CO/N=C(/c2ccccc2)c2noc(=O)n2C)n1` [Example 21]: 100% and 4.26^[a].
The matching figures for `Cn1c(/C(=N\OCc2nc(NC(=O)C(C)(C)C)cs2)c2ccccc2)noc1=O` [Example 11]: 100% and 3.23^[a].
As for `Cn1oc(=O)nc1/C(=N\OCc1nc(Br)cs1)c1ccccc1` [Example 14, 3-[(Z)-{[(4-bromo-1,3-thiazol-2-yl)methoxy]imino}(phenyl)methyl]-2-methyl-1,2,4-oxadiazol-5(2H)-one], the chromatographic logP in data set [2] stood at 2.6. For the same compound, the “% efficacy” value in data set [3] is reported as 74%.
On to `Cn1c(/C(=N\OCc2nc(NC(=O)COc3ccccc3)cs2)c2ccccc2)noc1=O` [Example 28], for which the “% efficacy” value in data set [3] is given as 73%. Further, the LogP in data set [1] is 3.30^[a].
The matching figures for `Cn1c(/C(=N\OCc2nc(C#CCCc3ccccc3)cs2)c2ccccc2)noc1=O` [Example 12]: 100% and 4.30^[a].
For the compound `CCCCCC#Cc1csc(CON=C(C#N)c2ccccc2)n1` [Example IV-10], the LogP in data set [1] is 5.27^[a].
Still for that read-out and setting: next, `CCCC#Cc1csc(CON=C(C(N)=NO)c2ccccc2)n1` [Example V-3]: 2.59^[a].
Turning to `C#CCCOC(=O)Nc1csc(CO/N=C(/c2ccccc2)c2noc(=O)n2C)n1` [Example 1], the “% efficacy” value in data set [3] is recorded as 98%. In data set [1], the LogP was 2.97^[a].
Compound `N#C/C(=N\OCn1ccc([N+](=O)[O-])n1)c1ccccc1` [Example IV-1, (2Z)-{[(3-nitro-1H-pyrazol-1-yl)methoxy]imino}(phenyl)acetonitrile] gave a chromatographic logP in data set [2] of 2.9.
For `C=CCOC(=O)Nc1csc(CO/N=C(/c2ccccc2)c2noc(=O)n2C)n1` [Example 42], the LogP in data set [1] was 3.02^[a].
On the same count and under the same terms, for `CCCCC#Cc1csc(CO/N=C(/c2ccccc2)c2noc(=O)[nH]2)n1` [Example 25] the value was 3.39^[a].
In the case of `Cn1c(/C(=N\OCc2nc(NC(=O)C3CCc4ccccc4O3)cs2)c2ccccc2)noc1=O` (stereo not shown) [Example 27], the “% efficacy” value in data set [3] is on record as 92%. Also, the Eff. % in data set [4] was 99%. The LogP in data set [1] is 3.77^[a].
The matching figures for `CC(OCC(=O)Nc1csc(CO/N=C(/c2ccccc2)c2noc(=O)n2C)n1)c1ccccc1` (stereo not shown) [Example 38]: 100%, 96% and 4.32^[a].
For `N#CC(=NOCn1ccc(N)n1)c1ccccc1` [Example IV-4], the LogP in data set [1] was 1.86^[a].
For `NC(=NO)C(=NOCn1ccc(N)n1)c1ccccc1` [Example V-1], in data set [1], the LogP is 0.65^[a].
As for `Cn1c(/C(=N\OCc2nc(C#CCc3ccccc3)cs2)c2ccccc2)noc1=O` [Example 39], in data set [3], the “% efficacy” value is reported as 88%. Besides, in data set [1], the LogP is 4.07^[a].
`CN(O)C(=N)/C(=N\OCn1ccc([N+](=O)[O-])n1)c1ccccc1` [Example VI-1, (2Z)—N-hydroxy-N-methyl-2-{[(3-nitro-1H-pyrazol-1-yl)methoxy]imino}-2-phenylethanimidamide] had a chromatographic logP in data set [2] of 1.15.
With `CCCCCC#Cc1csc(CO/N=C(/c2ccccc2)c2noc(=O)n2C)n1` [Example 37], the “% efficacy” value in data set [3] was 100%. Further, the LogP in data set [1] was 4.72^[a].
In the case of `N#CC(=NOCc1nc(C#CC2CC2)cs1)c1ccccc1` [Example IV-8], in data set [1], the LogP was 4.04^[a].
Turning to `Cn1c(/C(=N\OCc2nc(NC(=O)COCc3ccccc3)cs2)c2ccccc2)noc1=O` [Example 35], in data set [3], the “% efficacy” value was 93%. Moreover, the LogP in data set [1] was 3.45^[a].
For the compound `CC(Oc1ccccc1)C(=O)Nc1csc(CO/N=C(/c2ccccc2)c2noc(=O)n2C)n1` (stereo not shown) [Example 40], in data set [3], the “% efficacy” value is listed as 100%. The Eff. % in data set [4] is reported as 99%. Moreover, the LogP in data set [1] was 3.55^[a].
With `Cn1c(/C(=N\OCc2nc(C(=O)NC3CCCCC3)cs2)c2ccccc2)noc1=O` [Example 9], in data set [3], the “% efficacy” value worked out at 79%. The LogP in data set [1] is 3.43^[a].
`Cn1c(/C(=N\OCc2nc(NC(=O)Cc3ccccc3)cs2)c2ccccc2)noc1=O` [Example 19]: the LogP in data set [2] is 3.21^[a]. Moreover, the “% efficacy” value in data set [3] worked out at 98%.
For the compound `COC(=O)c1csc(CON=C(C#N)c2ccccc2)n1` [Example IV-2], the LogP in data set [1] is 2.80^[a].
As for `CC(C)C#Cc1csc(CO/N=C(/c2ccccc2)c2noc(=O)n2C)n1` [Example 23], the LogP in data set [2] was 3.86^[a]. Besides, the “% efficacy” value in data set [3] worked out at 99%.
With `CCCC#Cc1csc(CO/N=C(/c2ccccc2)c2noc(=O)n2C)n1` [Example 22], the “% efficacy” value in data set [3] is 100%. In addition, the Eff. % in data set [4] amounted to 85%. Also, the LogP in data set [1] is 3.87^[a].
On to `Cn1c(/C(=N\OCc2nc(C#CC3CCCCC3)cs2)c2ccccc2)noc1=O` [Example 31], for which, in data set [3], the “% efficacy” value came out at 94%. In data set [1], the LogP was 4.80^[a].
Consider `NC(=NO)C(=NOCc1nc(Br)cs1)c1ccccc1` [Example V-2], for which the LogP in data set [1] is 1.86^[a].
In data set [2], `Cn1oc(=O)nc1/C(=N\OCn1ccc(N)n1)c1ccccc1` [Example 8, 3-[(Z)-{[(3-amino-1H-pyrazol-1-yl)methoxy]imino}(phenyl)methyl]-2-methyl-1,2,4-oxadiazol-5(2H)-one] yielded a chromatographic logP of 1.29.
As for `CCCC#Cc1csc(CON=C(C#N)c2ccccc2)n1` [Example IV-6], in data set [1], the LogP was 4.41^[a].
Same read-out and setting: next, `NC(=NO)C(=NOCc1nc(C#CC2CCCCC2)cs1)c1ccccc1` [Example V-5]: 3.42^[a].
`Cn1c(C(=NOCc2nc(Br)cs2)c2ccccc2)noc1=O` [Example 3, 3-[{[(4-bromo-1,3-thiazol-2-yl)methoxy]imino}(phenyl)methyl]-4-methyl-1,2,4-oxadiazol-5(4H)-one] came in with a chromatographic logP in data set [2] of 3.25.
Consider `Cc1ccc(C(=O)Nc2csc(CO/N=C(/c3ccccc3)c3noc(=O)n3C)n2)cc1` [Example 17], for which the “% efficacy” value in data set [3] came to 100%. The compound also came in with an Eff. % in data set [4] of 84%. Moreover, the LogP in data set [1] is 3.34^[a].
As to `CCCC(C)C(=O)Nc1csc(CO/N=C(/c2ccccc2)c2noc(=O)n2C)n1` (stereo not shown) [Example 36], the “% efficacy” value in data set [3] is listed as 99%. The LogP in data set [1] was 3.45^[a].
As for `CCCC#Cc1csc(CO/N=C(/c2ccccc2)c2noc(=O)[nH]2)n1` [Example 26], the LogP in data set [1] is 3.47^[a].
Still for that read-out and setting: next, `CCCCC#Cc1csc(CON=C(C(N)=NO)c2ccccc2)n1` [Example V-4]: 2.98^[a].
Consider `CCCCC/C=C/c1csc(CO/N=C(/c2ccccc2)c2noc(=O)n2C)n1` [Example 30], for which, in data set [3], the “% efficacy” value stood at 97%. In data set [1], the LogP is 5.23^[a].
